# ChEMBL document CHEMBL3727364, “Resorcinol n-aryl amide compounds, for use as pyruvate dehydrogenase kinase inhibitors” (2015)
# Molecular target: [Pyruvate dehydrogenase (acetyl-transferring)] kinase isozyme 1, mitochondrial (Homo sapiens, UniProt Q15118)
# Test: Binding affinity to pyruvate dehydrogenase kinase 1 (unknown origin) incubated for 90 mins by VER-00160364 probe based fluorescence polarization assay
# Chain of [Pyruvate dehydrogenase (acetyl-transferring)] kinase isozyme 1, mitochondrial (Q15118 whole entry): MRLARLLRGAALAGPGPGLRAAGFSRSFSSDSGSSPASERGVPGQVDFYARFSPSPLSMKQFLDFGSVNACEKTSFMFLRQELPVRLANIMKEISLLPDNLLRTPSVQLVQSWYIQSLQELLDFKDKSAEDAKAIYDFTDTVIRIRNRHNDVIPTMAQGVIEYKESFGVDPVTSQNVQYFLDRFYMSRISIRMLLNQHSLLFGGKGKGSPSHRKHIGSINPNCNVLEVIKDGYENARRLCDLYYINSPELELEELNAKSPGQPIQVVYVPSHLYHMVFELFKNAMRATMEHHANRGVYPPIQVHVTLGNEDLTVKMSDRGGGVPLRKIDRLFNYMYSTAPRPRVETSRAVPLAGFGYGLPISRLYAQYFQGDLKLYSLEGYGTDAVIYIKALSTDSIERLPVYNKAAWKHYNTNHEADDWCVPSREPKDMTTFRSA
row,IC50 [nM],Structure (SMILES)
1,1000,Cc1ccc(C)c(-c2ccc(N(Cc3cccnc3)C(=O)c3ccc(O)cc3O)cc2)n1
2,100,CN(Cc1cccc2cnccc12)C(=O)c1ccc(N(Cc2cccnc2)C(=O)c2ccc(O)cc2O)cc1
3,10000,N#Cc1cc(Cl)nc(-c2ccc(N(Cc3ccsc3)C(=O)c3ccc(O)cc3O)cc2)c1
4,1000,COc1ccc(-c2ccc(N(Cc3cccnc3)C(=O)c3ccc(O)cc3O)cc2)c(Cl)c1
5,10000,Cc1cc(C(=O)Nc2ccc(N(Cc3ccccc3)C(=O)c3ccc(O)cc3O)cc2)no1
6,1000,Cc1cnc(Cl)nc1-c1ccc(N(Cc2ccccc2)C(=O)c2cc(C(F)(F)F)c(O)cc2O)cc1
7,1000,COc1cnc(Cl)nc1-c1ccc(N(Cc2ccccc2)C(=O)c2ccc(O)cc2O)cc1C
8,100,CN(Cc1cccs1)C(=O)c1ccc(N(Cc2cccnc2)C(=O)c2ccc(O)cc2O)cc1
9,10000,COc1cc(-c2ccc(N(Cc3ccsc3)C(=O)c3ccc(O)cc3O)cc2)ncn1
10,1000,O=C(c1ccc(O)cc1O)N(Cc1ccsc1)c1ccc(-c2nc(C(F)(F)F)ccc2C(F)(F)F)cc1
11,1000,O=C(Nc1ccc(N(Cc2ccccc2)C(=O)c2ccc(O)cc2O)cc1)c1ccccc1
12,10,Cc1cc(S(=O)(=O)NCc2ccccn2)cnc1-c1ccc(N(Cc2ccccc2)C(=O)c2ccc(O)cc2O)cc1
13,100,CN(C)C(=O)c1ccc(N(Cc2cccc(C#N)c2)C(=O)c2cc(Cl)c(O)cc2O)cc1
14,100,Cc1cc(S(=O)(=O)NCc2ccccc2)cnc1-c1ccc(N(Cc2ccsc2)C(=O)c2ccc(O)cc2O)cc1
15,1000,O=C(c1ccc(O)cc1O)N(Cc1ccccc1)c1ccccc1
16,1000,O=C(c1ccc(O)cc1O)N(Cc1cccnc1)c1ccc(-c2nc(-c3ccsc3)nc3ccccc23)cc1
17,100,CN(Cc1ccc(C#N)cc1)C(=O)c1ccc(N(Cc2cccnc2)C(=O)c2ccc(O)cc2O)cc1
18,100,COc1ccc(CN(C)C(=O)c2ccc(N(Cc3ccccc3)C(=O)c3ccc(O)cc3O)cc2)cc1
19,1000,O=C(c1ccc(O)cc1O)N(Cc1ccccc1)c1ccc(-c2ncccc2CO)cc1
20,1000,Cc1cnc(-c2cccnc2)nc1-c1ccc(N(Cc2ccccc2)C(=O)c2ccc(O)cc2O)cc1
21,10000,CNc1nccc(-c2ccc(N(Cc3ccccc3)C(=O)c3ccc(O)cc3O)cc2)n1
22,10000,O=C(c1ccc(O)cc1O)N(Cc1ccccc1)c1ccc(-c2nc3ccccc3cc2CO)cc1
23,100,Cc1cc(C(=O)N(Cc2ccccc2)c2ccc(-c3nc(Cl)ncc3C)cc2)c(O)cc1O

row,IC50 [nM],Structure (SMILES)
1,100,CCCc1cncnc1-c1ccc(N(Cc2cccnc2)C(=O)c2ccc(O)cc2O)cc1
2,1000,CCc1cc2ccccc2nc1-c1ccc(N(Cc2ccsc2)C(=O)c2ccc(O)cc2O)cc1
3,100,O=C(c1ccc(O)cc1O)N(Cc1ccccc1)c1ccc(-c2ccc(-n3ccnc3)nn2)cc1
4,100,O=C(c1ccc(O)cc1O)N(Cc1cccnc1)c1ccc(-c2nc(C(F)(F)F)nc3ccccc23)cc1
5,1000,O=C(NC1CC1)c1ccc(N(Cc2cccnc2)C(=O)c2ccc(O)cc2O)cc1
6,10,Cc1cc(S(=O)(=O)N2CCCCC2)cnc1-c1ccc(N(Cc2ccsc2)C(=O)c2ccc(O)cc2O)cc1
7,100,Cc1cc(S(=O)(=O)NCCN(C)C)cnc1-c1ccc(N(Cc2ccccc2)C(=O)c2ccc(O)cc2O)cc1
8,1000,CN(Cc1ccc(OC(F)(F)F)cc1)C(=O)c1ccc(N(Cc2ccsc2)C(=O)c2ccc(O)cc2O)cc1
9,10,CC(=O)NCCNS(=O)(=O)c1cnc(-c2ccc(N(Cc3cccnc3)C(=O)c3ccc(O)cc3O)cc2)c(C)c1
10,100,CN(Cc1cccs1)C(=O)c1ccc(N(Cc2ccccc2)C(=O)c2ccc(O)cc2O)cc1
11,100,O=C(c1ccc(O)cc1O)N(Cc1ccccc1)c1ccc(-c2nc(-c3ccsc3)nc3ccccc23)cc1
12,1000,O=C(c1ccc(O)cc1O)N(Cc1ccsc1)c1ccc(-c2ncnc3ccsc23)cc1
13,10,Cc1cc(S(=O)(=O)N2CC(F)(F)C2)cnc1-c1ccc(N(Cc2cccnc2)C(=O)c2ccc(O)cc2O)cc1
14,10,CC(=O)N1CCN(S(=O)(=O)c2cnc(-c3ccc(N(Cc4ccccc4)C(=O)c4ccc(O)cc4O)cc3)c(C)c2)CC1
15,100,Cc1cc2ccccc2nc1-c1ccc(N(Cc2ccc(F)cc2)C(=O)c2ccc(O)cc2O)cc1
16,100,Cc1cc2ccc(F)cc2nc1-c1ccc(N(Cc2cccnc2)C(=O)c2ccc(O)cc2O)cc1
17,100,Cc1nccnc1-c1ccc(N(Cc2ccsc2)C(=O)c2ccc(O)cc2O)cc1
18,100,COc1ccc(CN(C)C(=O)c2ccc(N(Cc3ccccc3)C(=O)c3cc(Cl)c(O)cc3O)cc2)cc1
19,100,CN(C)C(=O)c1ccc(N(Cc2cccc3c2cnn3C)C(=O)c2ccc(O)cc2O)cc1
20,100,CCc1cnc(C)nc1-c1ccc(N(Cc2ccccc2)C(=O)c2ccc(O)cc2O)cc1
21,100,Cc1csc2ncnc(-c3ccc(N(Cc4ccsc4)C(=O)c4ccc(O)cc4O)cc3)c12
22,100,CC(=O)Nc1ccc(-c2ccc(N(Cc3cccnc3)C(=O)c3ccc(O)cc3O)cc2)c(C)c1
23,100,CC(c1ccccc1)N(C(=O)c1cc(Cl)c(O)cc1O)c1ccc(C(=O)N(C)C)cc1 (stereo unspecified)

row,IC50 [nM],Structure (SMILES)
1,100,O=C(c1ccc(O)cc1O)N(Cc1ccsc1)c1ccc(-c2nc(Cl)nc3c2COCC3)cc1
2,1000,COc1cnc(Cl)nc1-c1ccc(N(Cc2ccccc2)C(=O)c2cc(C)c(O)cc2O)cc1
3,100,O=C(c1ccc(O)cc1O)N(Cc1ccccc1)c1ccc(-c2ncnc3ccc(Cl)cc23)cc1
4,10,CC(=O)N1CCN(S(=O)(=O)c2cnc(-c3ccc(N(Cc4cccnc4)C(=O)c4ccc(O)cc4O)cc3)c(C)c2)CC1
5,1000,C[C@@H](c1ccccc1)N(C(=O)c1cc(Cl)c(O)cc1O)c1ccc(C(=O)N(C)C)cc1
6,1000,O=C(c1ccc(O)cc1O)N(Cc1cccnc1)c1ccc(-c2ccc(N3CCOCC3)nn2)cc1
7,10000,Cc1cc(-c2ccc(N(Cc3ccccc3)C(=O)c3ccc(O)cc3O)cc2)nnc1Cl
8,100,Cc1ccc(CN(C(=O)c2cc(Cl)c(O)cc2O)c2ccc(C(=O)N(C)C)cc2)cc1
9,100,Cc1cnc(Cl)nc1-c1ccc(N(Cc2ccsc2)C(=O)c2ccc(O)cc2O)cc1
10,1000,O=C(c1ccc(O)cc1O)N(Cc1ccccc1)c1ccc(-c2ccc(N3CCOCC3)nn2)cc1
11,10000,O=C(c1ccc(O)cc1O)N(Cc1ccsc1)c1ccc(-c2cnc3ccccc3n2)cc1
12,100,CN(Cc1cccc2cccnc12)C(=O)c1ccc(N(Cc2cccnc2)C(=O)c2ccc(O)cc2O)cc1
13,1000,Cc1cc2ccccc2nc1-c1ccc(N(Cc2ccccc2)C(=O)c2cc(Cl)c(O)cc2O)cc1
14,10,CN(C)C(=O)c1ccc(N(Cc2cccnc2)C(=O)c2cc(Cl)c(O)cc2O)cc1
15,100,Cc1ncc(C)c(-c2ccc(N(Cc3ccccc3)C(=O)c3ccc(O)cc3O)cc2)n1
16,1000,Cc1cc2cc(F)ccc2nc1-c1ccc(N(Cc2ccsc2)C(=O)c2ccc(O)cc2O)cc1
17,100,CN(C)C(=O)c1ccc(N(Cc2ccccn2)C(=O)c2cc(Cl)c(O)cc2O)cc1
18,100,Nc1ccc(-c2ccc(N(Cc3ccccc3)C(=O)c3ccc(O)cc3O)cc2)nn1
19,1000,Cc1nc(N)ccc1-c1ccc(N(Cc2ccccc2)C(=O)c2ccc(O)cc2O)cc1
20,1000,COc1ccc(CNC(=O)c2ccc(N(Cc3ccccc3)C(=O)c3ccc(O)cc3O)cc2)cc1
21,10,Cc1cc2ccccc2nc1-c1ccc(N(Cc2cccnc2)C(=O)c2ccc(O)cc2O)cc1
22,10,Cc1cc(S(=O)(=O)NCCN(C)C)cnc1-c1ccc(N(Cc2ccsc2)C(=O)c2ccc(O)cc2O)cc1
23,100,O=C(c1ccc(O)cc1O)N(Cc1cccnc1)c1ccc(-c2ccncc2C(F)(F)F)cc1

row,IC50 [nM],Structure (SMILES)
1,100,CNc1nccc(-c2ccc(N(Cc3cccnc3)C(=O)c3ccc(O)cc3O)cc2)n1
2,10000,Cc1cc2[nH]c(=O)[nH]c2cc1-c1ccc(N(Cc2ccccc2)C(=O)c2ccc(O)cc2O)cc1
3,1000,CN(C)C(=O)c1ccc(N(Cc2c[nH]cn2)C(=O)c2cc(Cl)c(O)cc2O)cc1
4,1000,O=C(NCc1ccccc1)Nc1ccc(N(Cc2ccccc2)C(=O)c2ccc(O)cc2O)cc1
5,1000,O=C(c1ccc(O)cc1O)N(Cc1ccsc1)c1ccc(-c2ccncc2C(F)(F)F)cc1
6,1000,Cc1cc2ccccc2nc1-c1ccc(N(Cc2cc(F)cc(F)c2)C(=O)c2ccc(O)cc2O)cc1
7,1000,CN(C)CCN(C)C(=O)c1ccc(N(Cc2ccccc2)C(=O)c2ccc(O)cc2O)cc1
8,1000,CC(=O)Nc1ccc(N(Cc2ccccc2)C(=O)c2ccc(O)cc2O)cc1
9,100,CN(C)C(=O)c1ccc(N(CC2CCCC2)C(=O)c2cc(Cl)c(O)cc2O)cc1
10,1000,O=C(c1ccc(O)cc1O)N(Cc1ccccc1)c1ccc(-c2nc(Cl)nn3cccc23)cc1
11,10,Cc1cc(S(=O)(=O)NCc2cccnc2)cnc1-c1ccc(N(Cc2ccccc2)C(=O)c2ccc(O)cc2O)cc1
12,1000,CN(Cc1ccc2ccccc2c1)C(=O)c1ccc(N(Cc2ccsc2)C(=O)c2ccc(O)cc2O)cc1
13,1000,CN(Cc1ccc2c(ccn2C)c1)C(=O)c1ccc(N(Cc2ccsc2)C(=O)c2ccc(O)cc2O)cc1
14,100,O=C(c1ccc(O)cc1O)N(Cc1ccsc1)c1ccc(-c2nc(C(F)(F)F)nc3ccccc23)cc1
15,10,O=C(c1ccc(O)cc1O)N(Cc1ccccc1)c1ccc(-c2ccccc2Cl)cc1
16,1000,O=C(c1ccc(O)cc1O)N(Cc1ccccc1)c1ccc(-c2nc3ccc(Cl)cc3cc2CO)cc1
17,10,CN(Cc1cccc2ccccc12)C(=O)c1ccc(N(Cc2cccnc2)C(=O)c2ccc(O)cc2O)cc1
18,10000,NC(=O)c1nc(-c2ccc(N(Cc3ccccc3)C(=O)c3ccc(O)cc3O)cc2)c2ccccc2n1
19,10,Cc1cc(S(=O)(=O)N2CCN(C)CC2)cnc1-c1ccc(N(Cc2ccccc2)C(=O)c2ccc(O)cc2O)cc1
20,100,CN(Cc1cccc2ncccc12)C(=O)c1ccc(N(Cc2ccsc2)C(=O)c2ccc(O)cc2O)cc1
21,1000,O=C(NC1CC1)c1ccc(N(Cc2ccccc2)C(=O)c2ccc(O)cc2O)cc1

row,Structure (SMILES),IC50 [nM]
1,CN(C)C(=O)c1ccc(N(CC2CCNCC2)C(=O)c2cc(Cl)c(O)cc2O)cc1,100
